Source: publication PMC11905058, “Novel Leech Antimicrobial Peptides, Hirunipins: Real‐Time 3D Monitoring of Antimicrobial and Antibiofilm Mechanisms Using Optical Diffraction Tomography” (Advanced Science, 2025)
In brackets after ≈: the same amount, converted by molar mass.

Assays:
MDRE (328-84) = assay type: cell-based, Enterobacter cloacae; details: clinically isolated multidrug-resistant Enterobacter cloacae; broth microdilution
Method: (§1) The MICs of the peptides were measured by the Clinical and Laboratory Standards Institute (CLSI) broth microdilution method, as outlined in a previous study.^[ [26], [27] ^]
Microbial Strains and Cell Lines: Multiple bacterial strains were used in this study. Standard stains included Escherichia coli (KCTC 1682), Pseudomonas aeruginosa (KCTC 1637), Staphylococcus aureus (KCTC1621) and Staphylococcus epidermidis (KCTC 1917) supplied from the Korean Collection for Type Cultures (KCTC) of the Korea Research Institute of Bioscience and Biotechnology (KRIBB). Clinically isolated multidrug-resistant bacteria included multidrug-resistant Klebsiella pneumonia (MDRKP 328-83), multidrug-resistant Acinetobacter baumannii (MDRAB 329-53), multidrug-resistant Pseudomonas aeruginosa (MDRPA 314-69), multidrug-resistant Enterobacter cloacae (MDRE 328-84) and multidrug-resistant Escherichia coli (MDREC 329-66) provided from Hospital of Chosun University, Korea. All bacterial strains were stored in 20% glycerol at −80 °C. For the subsequent experiments, the bacteria were recovered and cultured in the corresponding enrichment broth at 37 °C. The mouse macrophage RAW264.7, mouse fibroblast NIH-3T3 and human keratinocyte HaCat cells were cultured in Dulbecco’s modified Eagle’s medium (DMEM), supplemented with 10% (v/v) of fetal bovine serum (Sigma-Aldrich), 100 U/mL of penicillin and 0.1 mg/mL of streptomycin, at 37 °C in the presence of 5% CO2
(§2) Minimal Inhibitory Concentrations (MICs): Bacteria were grown to mid-logarithmic phase and diluted in Mueller-Hinton broth (MHB) (Difco). The bacterial suspension (1×10^6 CFU/well) was added to a 96-well microtiter plate along with a two-fold serial dilution of samples. The plate was incubated at 37 °C for 24 hours and the bacterial growth inhibition was assessed by measuring the optical density using an ELISA plate reader. The minimum inhibitory concentration (MIC) was defined as the lowest concentration of samples that prevented visible bacterial growth.

[1] = tested on: Staphylococcus epidermidis [KCTC 1917]; assay type: cell-based; details: CLSI broth microdilution in MHB, 1×10^6 CFU/well, 37 °C, 24 h, optical density
Method: as §1, §2

[2] = tested on: Staphylococcus aureus [KCTC1621]; assay type: cell-based; details: CLSI broth microdilution in MHB, 1×10^6 CFU/well, 37 °C, 24 h, optical density
Method: as §1, §2

[3] = tested on: Pseudomonas aeruginosa [KCTC 1637]; assay type: cell-based; details: CLSI broth microdilution in MHB, 1×10^6 CFU/well, 37 °C, 24 h, optical density
Method: as §1, §2

[4] = tested on: Escherichia coli [KCTC 1682]; assay type: cell-based; details: CLSI broth microdilution in MHB, 1×10^6 CFU/well, 37 °C, 24 h, optical density
Method: as §1, §2

S. aureus (KCTC 1621) [5] = experiment: PI influx assay by flow cytometry; assay type: cell-based, Staphylococcus aureus; details: 16 µg mL^−1, 60 min, 37 °C, PI 10 µg/mL, untreated 9.5%
Method: (§3) Damage to membrane integrity induced by the peptides was evaluated by flow cytometry of E. coli (KCTC 1682) and S. aureus (KCTC 1621) cells stained with the membrane‐impermeable dye PI, as previously described.^[ [26], [27] ^]
(§4) Flow Cytometry Analysis: E. coli (KCTC 1682) and S. aureus (KCTC 1621) were cultured in LB broth until they reached mid-log-phase, then washed and resuspended in PBS to a density of 2 × 10^5 CFU/mL. The bacterial suspension was incubated with the samples and 10 µg/mL of propidium iodide (PI), a fluorescent dye, at 37 °C for 1 hour in the dark. The samples were then centrifuged and washed twice in PBS to remove any excess dye. The fluorescence of PI, which indicates membrane damage, was measured by FACS flow cytometer (Agilent, ACEA Bioscience Inc.) using a laser excitation wavelength of 488 nm.

E. coli (KCTC 1682) [6] = experiment: PI influx assay by flow cytometry; assay type: cell-based, Escherichia coli; details: 16 µg mL^−1, 60 min, 37 °C, PI 10 µg/mL, untreated 6.9%
Method: as §3, §4

E. coli (KCTC 1682) [7] = experiment: Multipassage drug resistance study; assay type: cell-based, Escherichia coli; details: continuous exposure at sub-MIC (0.5×MIC)
Method: The MICs of hirunipin 2 and antibiotics were determined, and the concentration of each sub‐MIC (0.5×MIC) of E. coli (KCTC 1682) was diluted to 1 × 10^6 CFU mL^−1 with MHB for the next passaged MIC determination. This procedure was repeated fifteen times. Ciprofloxacin and tetracycline were used as the controls.

MDRAB (329-53) = tested on: MDRAB (329-53)
Method: Synergy testing by checkerboard assay: Briefly, each 96-well microtiter plate was inoculated with two-fold serial dilutions of two antibiotics, ranging from 1/8 MIC to 2 MIC, such that one antibiotic was inoculated in the columns and the other in the rows. Then, MDRAB (329-53) cells were inoculated at a concentration of 1× 10^6 CFU/mL. The plates were incubated overnight under static conditions and observed visually.

S. aureus (KCTC 1621) [8] = experiment: Membrane depolarization assay (diSC3-5); assay type: cell-based, Staphylococcus aureus; details: diSC3-5 fluorescence, monitored 500 s
Method: The FL dye diSC3‐5 (3,3′‐dipropylthiadicarbocyanine iodide) was utilized to assess the depolarizing impact of peptides on the cytoplasmic membrane of S. aureus (KCTC 1621), following a previously established method.^[ [26], [27] ^]
Membrane Depolarization Assay: Briefly, mid-log phase S. aureus (KCTC 1621) was harvested and washed three times with 5 mM HEPES buffer (pH 7.4, containing 20 mM glucose), and resuspended to an OD600 of 0.05 in the same buffer. The cell suspension was incubated with 0.4 μM diSC3-5 for 90 min such that most of the dye molecules gathered at the cytoplasmic membrane. To equilibrate the cytoplasmic and external K^+ concentrations, KCl was added to the cell suspension containing diSC3-5 to obtain a final concentration of 100 mM, followed by incubating the cells at room temperature for 15−30 min, with peptide aliquots added to 2 mL of suspension. The fluorescence was recorded using a model RF-5301 PC fluorescence spectrophotometer (Shimadzu) at an excitation wavelength of 622 nm and an emission wavelength of 670 nm.

[9] = antibiotic in combination with hirunipin 2
[10] = in combination with hirunipin 2

| Compound | Minimum inhibitory concentrations, MDRE (328-84) (MDRE (328-84)) [mg/L] | Minimum inhibitory concentration (MIC), Staphylococcus epidermidis [KCTC 1917] [1] [mg/L] | Minimum inhibitory concentration (MIC), Staphylococcus aureus [KCTC1621] [2] [mg/L] | Minimum inhibitory concentration (MIC), Pseudomonas aeruginosa [KCTC 1637] [3] [mg/L] | Minimum inhibitory concentration (MIC), Escherichia coli [KCTC 1682] [4] [mg/L] | percentage of PI-positive cells, S. aureus (KCTC 1621) (S. aureus (KCTC 1621) [5]) [%] | percentage of PI-positive cells, E. coli (KCTC 1682) (E. coli (KCTC 1682) [6]) [%] | fold-change in the MICs after 15 passages (E. coli (KCTC 1682) [7]) [fold] | FICI: fractional inhibitory concentration index, FICA + FICB (MDRAB (329-53); [9]) | Interpretation of FICI (MDRAB (329-53); [9]) | MICA: MIC of antibiotic alone (MDRAB (329-53); checkerboard, MDRAB, 1×10^6 CFU/mL) [mg/L] | FICA: fractional inhibitory concentration of antibiotic ([A] / MICA) (MDRAB (329-53); [10]) | [A]: MIC of antibiotic in combination (MDRAB (329-53); [10]) [mg/L] | effect on membrane potential (in words) (S. aureus (KCTC 1621) [8]) |
| --- | --- | --- | --- | --- | --- | --- | --- | --- | --- | --- | --- | --- | --- | --- |
| CC[C@H](C)[C@H](NC(=O)CN)C(=O)NCC(=O)N[C@@H](C)C(=O)N[C@H](C(=O)N[C@@H](CC(C)C)C(=O)N[C@@H](CCCCN)C(=O)N[C@H](C(=O)N[C@@H](CC(C)C)C(=O)N[C@H](C(=O)N[C@H](C(=O)NCC(=O)N[C@@H](CC(C)C)C(=O)N1CCC[C@H]1C(=O)N[C@@H](C)C(=O)N[C@@H](CC(C)C)C(=O)N[C@H](C(=O)N[C@@H](CO)C(=O)N[C@@H](Cc1c[nH]c2ccccc12)C(=O)N[C@H](C(=O)N[C@@H](CCCCN)C(=O)N[C@@H](CCCNC(=N)N)C(=O)N[C@@H](CCCCN)C(=O)N[C@@H](CCCNC(=N)N)C(=O)N[C@@H](CCC(N)=O)C(=O)N[C@@H](CCC(N)=O)C(N)=O)[C@@H](C)CC)[C@@H](C)CC)[C@@H](C)O)[C@@H](C)O)C(C)C)C(C)C [Melittin, reference compound] | 64 (≈ 22.5 µM) | 32 (≈ 11.2 µM) | 16 (≈ 5.62 µM) | 32 (≈ 11.2 µM) | 32 (≈ 11.2 µM) | 99.5 | 91.6 | – | – | – | – | – | – | – |
| CN(C)[C@@H]1C(O)=C(C(N)=O)C(=O)[C@@]2(O)C(O)=C3C(=O)c4c(O)cccc4[C@@](C)(O)[C@H]3C[C@@H]12 [TET, Tetracycline] | – | – | – | – | – | – | – | 32 | 0.25 | synergy (FICI ≤ 0.5 was interpreted as synergy) | 16 | 0.125 | 2 | – |
| Buforin‐2 [Buforin-2] | – | – | – | – | – | 9.6 | 7.6 | – | – | – | – | – | – | did not affect membrane potential |
